# Results published in patent US8962576B2, “Compositions and method for improving endothelial function and cardiovascular health” (Natreon, Inc., priority 2012, dated 2015).
# Experiments:
# platelet aggregation = assay: Platelet aggregation with ADP, dual channel aggregometer, study (a); type: in vivo, human
# Protocol: Evaluation of Platelet Aggregation.
# The platelet aggregation was determined by the following procedure using Wheecon chronologue dual channel platelet aggregometer (Wheecon Instruments Pvt. Ltd., Chemai, Tamilnadu, India). The percentage decrease in platelet aggregation was recorded at baseline and 3 hours post treatment. Approximately 9 ml of blood sample was collected in a 10 ml plastic test tube containing 1 ml of 3.8% Sodium Citrate from the cubital vein of the subject at baseline and after 3 hours post treatment in all the groups. The test was performed immediately within a time period of one and half hours from collection. The samples were centrifuged at 800 rpm for 15 minutes to obtain a platelet-rich plasma. A portion of the same sample was centrifuged at 2500 rpm for 10 minutes so as to get a platelet-poor plasma sample. The aggregometer was switched about 30 minutes before the test to allow the heating block to warm up to 37° C. Then the test was performed in duplicate by taking 0.5 ml of platelet-rich plasma using 5 μl of adenosine di-phosphate (ADP) solution (2 μgm/ml) in cuvettes containing magnetic stir bars. The speed of stir bars were adjusted at 1200 rpm so as to facilitate the aggregation of the platelets. The platelet-poor plasma sample was kept as reference. The readings were recorded at baseline and after treatment with ADP. The percentage aggregation at baseline and the percentage inhibition of platelet aggregation on post treatment with all the four treatments was calculated.
# Type 2 Diabetic Subjects = assay: Marker of endothelial function: reflection index (RI), study (c); type: in vivo, human; conditions: CAPROS 250 mg twice daily, Atorvastatin 10 mg daily, n = 20
# Text: A salbutamol (albuterol) challenge test employing digital volume plethysmography was used to assess endothelial function as reported by Chowienczyk et al., “Photoplethysmographic assessment of pulse wave reflection: blunted response to endothelium dependant beta 2-adrenergic vasodilation in type 2 diabetes mellitus,” J. Am. Coll. Cardiol. (1999 December) 34(7):2007-14; and Naidu, et al., “Comparison of two β2 adrenoceptor agonists by different routes of administration to assess human endothelial function,” Indian J. Pharmacol. (2007) 39:168-9. The patients were examined in supine position after 5 minutes of rest. A digital volume pulse (DVP) was obtained using a photo plethysmograph (Pulse Trace PCA2, PT200, Micro Medical, Gallingham, Kent, UK) transmitting infrared light at 940 nm, placed on the index finger of the right hand. The signal from the plethysmograph was digitized using a 12 bit analogue to digital converter with a sampling frequency of 100 Hz. DVP waveforms were recorded over 20 second period and the height of the late systolic/early diastolic portion of the DVP was expressed as a percentage of the amplitude of the DVP to yield the reflection index (RI), per the procedure described in detail by Millasseau et al., “Determination of age related increases in large artery stiffness by digital pulse contour analysis,” Clinical Science (2002) 103: 371-377. Three DVP recordings were taken, and measurements of reflection index (RI) were calculated and the mean value was determined. Patients were then administered 400 μg of salbutamol by inhalation. After 15 minutes three measurements of RI were obtained again and the difference in mean RI before and after administration of salbutamol was used for assessing endothelial function. A change of ≦6% in RI post-salbutamol was considered as endothelial dysfunction.
# Study (c) design. […]
smiles,measurement,setting,value
CC(C)c1c(C(=O)Nc2ccccc2)c(-c2ccccc2)c(-c2ccc(F)cc2)n1CC[C@@H](O)C[C@@H](O)CC(=O)O [Atorvastatin],% Inhibition of Platelet Aggregation,"platelet aggregation; 3 hours post treatment, ADP, n = 10",7.11%
same,platelet aggregation,"platelet aggregation; Post treatment, 3 hours post treatment, ADP, n = 10",62.00±12.81%
same,platelet aggregation,"platelet aggregation; Pre treatment (baseline), ADP, n = 10",66.50±11.00%
same,reduction of ADP induced platelet aggregation,"platelet aggregation; earlier study, results in Table V",did not produce significant reduction
same,Absolute change in RI,Type 2 Diabetic Subjects; 12 weeks,−8.35 ± 4.17%
same,"RI(%), Mean","Type 2 Diabetic Subjects; Post TT, 12 weeks",−11.03$ %
same,"RI(%), Mean",Type 2 Diabetic Subjects; Pre TT,−2.68%
